One assay has as its target T1, recombinant human CK2 (Homo sapiens, UniProt P68400).
T1 construct: purchased Millipore
Briefly: CK2 Kinase Assay (radiometric, [γ-33P]ATP). Format: biochemical. As to conditions: final ATP concentration 15 μM, 10 min at 30° C.; read-out: protein kinase CK2 activity IC50. On the procedure:
CK2 Kinase Assay was conducted using the protocol as described in Pierre F. et al; J. Med. Chem. 2011, 54, 635-654. The tested compounds in aqueous solution were added at a volume of 10 μL to a reaction mixture comprising 10 μL of assay dilution buffer (ADB; 20 mM MOPS, pH 7.2, 25 mM β-glycerol phosphate, 5 mM EGTA, 1 mM sodium orthovanadate, and 1 mM dithiothreitol), 10 μL of substrate peptide (RRRDDDSDDD, dissolved in ADB at a concentration of 1 mM), 10 μL of recombinant human CK2 (RROP-holoenzyme, 25 ng dissolved in ADB; Millipore). Reactions were initiated by the addition of 10 μL of ATP solution (90% 75 mMMgCl2, 75 μM ATP (final ATP concentration:15 μM) dissolved in ADB; 10% [γ-33P] ATP (stock 1mCi/100 L; 3000 Ci/mmol (Perkin-Elmer) and maintained for 10 min at 30° C. The reactions were quenched with 100 μL of 0.75% phosphoric acid and then transferred to and filtered through a phosphor cellulose filter plate (Millipore). After washing each well five times with 0.75% phosphoric acid, the plate was dried under vacuum for 5 min and, following the addition of 15 μL of scintillation fluid to each well, the residual radioactivity was measured using a Wallac luminescence counter. The IC50 values were derived from eight concentrations of test inhibitors.

Another assay relates to MIAPaCa-2 (pancreas). Briefly: In vitro cytotoxic activity assay (MTT), MIAPaCa-2. The format is cell-based. As to conditions: Homo sapiens, MIA PaCa-2; MIAPaCa-2 (pancreas) cells, exposed for 96 hours; read-out: IC50, concentration of compound eliciting a 50% inhibition of cell proliferation. On the procedure: (§1) Compounds 1-16 were screened for their in vitro cytotoxic activity utilizing a 3-(4,5-dimethyl-thiazol-2-yl)-2,5-diphenyltetrazolium bromide (MTT) assay against selected cancer human cell lines consisting of PC3 (prostate), HCT116 (colon), A375 (melanoma), H1299 (lung), MIAPaCa-2 (pancreas), HL60 (leukemia), MCF7 (breast), MDA-MB-231 (breast) (T. Mosmann, J. Immunol. Meth., 1983, 65, 55-63). The cells were cultured at 37° C. in RMPI1640 medium supplemented with 10% fetal bovine serum, 50 IU/mL penicillin, and 50 μg/mL streptomycin in a 5% CO2 incubator. All cells were sub-cultured 3 times/week by trypsinisation. Viable cells were seeded and allowed to adhere for 12 h before a test drug was added in 96-well plates at an initial density of 1.0×10^5 cells/mL. Tumour cell lines were separately exposed to various concentrations of the tested compounds followed by incubation at a temperature of 37° C. during 96 h inside a medium of fresh RMPI 1640. Cells were subsequently incubated at 37° C. using MTT at 0.5 mg/mL during 4 h. After removal of supernatant, formazan crystals were dissolved in isopropanol and the optical density was measured at 570 nm. CX-4945 was used as a positive control.

A further assay deals with MDA-MB-231 (breast). Description: In vitro cytotoxic activity assay (MTT), MDA-MB-231. The format is cell-based. As to conditions: Homo sapiens; MDA-MB-231 (breast) cells, exposed for 96 hours; read-out: IC50, concentration of compound eliciting a 50% inhibition of cell proliferation. The method, then: as §1
The test system of the next assay is HCT116 (colon). Briefly: In vitro cytotoxic activity assay (MTT), HCT116. As to conditions: Homo sapiens, HCT-116; HCT116 (colon) cells, exposed for 96 hours; read-out: IC50, concentration of compound eliciting a 50% inhibition of cell proliferation. The format is cell-based. The method, then: as §1
A further assay has as its system A375 (melanoma). Briefly: In vitro cytotoxic activity assay (MTT), A375. Format: cell-based. As to conditions: Homo sapiens, A-375; A375 (melanoma) cells, exposed for 96 hours; read-out: IC50, concentration of compound eliciting a 50% inhibition of cell proliferation. The method, then: as §1
The test system of another assay is MCF7 (breast). Description: In vitro cytotoxic activity assay (MTT), MCF7. The format is cell-based. As to conditions: Homo sapiens; MCF7 (breast) cells, exposed for 96 hours; read-out: IC50, concentration of compound eliciting a 50% inhibition of cell proliferation. The method, then: as §1
For a further assay, the system named is H1299 (lung). Briefly: In vitro cytotoxic activity assay (MTT), H1299. As to conditions: Homo sapiens, NCI-H1299; H1299 (lung) cells, exposed for 96 hours; read-out: IC50, concentration of compound eliciting a 50% inhibition of cell proliferation. The format is cell-based. The method, then:
as §1

A further assay deals with HL60 (leukemia). Description: In vitro cytotoxic activity assay (MTT), HL60. As to conditions: Homo sapiens, HL-60; HL60 (leukemia) cells, exposed for 96 hours; read-out: IC50, concentration of compound eliciting a 50% inhibition of cell proliferation. Format: cell-based. The method, then: as §1
For a further assay, the system named is PC3 (prostate). Description: In vitro cytotoxic activity assay (MTT), PC3. The format is cell-based. As to conditions: Homo sapiens, Prostate cell; PC3 (prostate) cells, exposed for 96 hours; read-out: IC50, concentration of compound eliciting a 50% inhibition of cell proliferation. On the procedure: as §1

Structures are written as SMILES.

T1 sequence (P68400 whole entry): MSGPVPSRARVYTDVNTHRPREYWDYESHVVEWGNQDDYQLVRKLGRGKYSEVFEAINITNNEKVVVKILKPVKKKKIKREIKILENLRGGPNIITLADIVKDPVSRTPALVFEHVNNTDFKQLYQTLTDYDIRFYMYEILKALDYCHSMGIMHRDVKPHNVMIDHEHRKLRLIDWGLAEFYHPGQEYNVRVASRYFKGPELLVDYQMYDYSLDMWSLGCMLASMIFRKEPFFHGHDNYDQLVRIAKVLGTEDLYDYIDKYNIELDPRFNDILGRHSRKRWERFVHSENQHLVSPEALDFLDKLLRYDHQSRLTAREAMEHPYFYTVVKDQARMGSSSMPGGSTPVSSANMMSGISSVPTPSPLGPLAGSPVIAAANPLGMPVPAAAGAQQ
T1 sequence (P67870 whole entry partner): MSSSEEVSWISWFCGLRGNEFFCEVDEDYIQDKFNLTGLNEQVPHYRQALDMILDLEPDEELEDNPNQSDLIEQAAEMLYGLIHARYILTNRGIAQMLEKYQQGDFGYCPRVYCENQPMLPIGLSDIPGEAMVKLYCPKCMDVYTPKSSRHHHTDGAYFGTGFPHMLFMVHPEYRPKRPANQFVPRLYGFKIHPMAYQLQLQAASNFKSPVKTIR

Consider `O=C(O)c1ccc2c(c1)nc(Nc1cccc(Cl)c1)c1[nH]c3ccncc3c12` [Compound 1, 6-((3-chlorophenyl)amino)-7H-pyrido[3′,4′:4,5]pyrrolo[2,3-c]quinoline-3-carboxylic acid], for which the IC50 on recombinant human CK2 was 175 nM; with MIAPaCa-2 (pancreas), 1100 nM; with MDA-MB-231 (breast), 2500 nM; in the assay with HCT116 (colon), 1500 nM; in the assay on A375 (melanoma), 3300 nM; in the assay on MCF7 (breast), 4100 nM. Besides, the values for the IC50 with H1299 (lung), with HL60 (leukemia) and with PC3 (prostate) were 1900 nM, 2800 nM and 1100 nM, respectively.

The values are drawn from US11884668B1, “Substituted pyrido[3′,4′:4,5]pyrrolo[2,3-c]quinolines as CK2 inhibitors” (KING FAISAL UNIVERSITY, priority 2023, dated 2024).
